The values that follow come from patent publication US10925858B2, “S-nitrosoglutathione (GSNO) and GSNO reductase inhibitors for use in therapy” (MUSC FOUNDATION FOR RESEARCH DEVELOPMENT, priority 2017, dated 2021).

The test system of assay [1] is 3-nitrotyrosine. Put plainly: Nitrotyrosine levels in spinal cords of EAE mice, Western. Format: in vivo, C57BL/6J mice. The note with it: day 24 post-immunization; GSNO 1 mg/kg/day or FeTPPS 30 mg/kg/day i.p. Here is the method:
Western immunoblot analysis was performed by standard method using 50 μg of cell lysates. Following the SDS-PAGE electrophoresis, proteins were transferred from the gel onto the Polyvinylidene fluoride membrane (GE Healthcare Life Sciences, Marlborough, Mass.). […]
EAE was induced as described previously (Nath et al., 2009). […] The group size was determined by power analysis based on our previous data (Nadi et al., 2009). […] Clinical signs of EAE were scored in animal facility in a blinded fashion to experimenter between 2 and 4 pm daily by examiners blinded to experimental treatments using the following scale: 0=no clinical signs of disease; 1=limp tail or waddling gait with tail tonicity; 2=waddling gait with limp tail (ataxia); 2.5=ataxia with partial limb paralysis; 3=full paralysis of one limb; 3.5=full paralysis of one limb with partial paralysis of second limb; 4=full paralysis of two limbs; 4.5=moribund stage; 5=death. […]

In assay [2] the test system is BBB leakage. Put plainly: BBB disruption by Evans blue extravasation in CCI rat model of TBI. The format is in vivo, Sprague Dawley rats. The note with it: 24 hr after TBI; GSNO 0.05 mg/kg i.v. or FeTPPS 3 mg/kg i.v. right after impact. From the text:
All animals used in this study received humane care in compliance with the Medical University of South Carolina's (MUSC) guidance and the National Research Council's criteria for humane care. Animal procedures were approved by the institutional animal care and use committee of MUSC (AR #2703). For generation of CCI model of TBI, young adult male (˜3-4 months old) Sprague Dawley rats weighing between 260-300 g were randomly divided into four groups: 1) TBI animals treated with vehicle (TBI; n=13), 2) TBI with GSNO (0.05 mg/kg body weight/i.v.) treatment (TBI+GSNO; n=13), 3) TBI with FeTPPS (3 mg/kg body weight, i.v.) treatment (TBI+FeTPPS; n=13), 4) sham-operated treated with vehicle (Sham; n=13). The group size was determined by power analysis based on our previous data (Khan et al., 2016b; Khan et al., 2009). Ketamine (90 mg/kg body weight) and xylazine (10 mg/kg body weight) as surgical anesthesia were administered intraperitoneally. Analgesic buprenorphine was administered pre-emptively to alleviate pain following surgery. […]
BBB leakage was assessed as previously described from our laboratory (Khan et al., 2016b; Khan et al., 2009). […] The brain tissues were homogenized in 750 μl of N, N-dimethylformamide (DMF) and centrifuged at 10,000×g for 25 minutes, and EB content in supernatant was fluorimetrically analyzed (λex 620 nm, λem 680 nm).

Assay [3] deals with mononuclear cells. Nature of the assay: H&E staining, peripheral mononuclear cell infiltration in EAE mice. The format is in vivo, C57BL/6J mice. The note with it: GSNO 1 mg/kg/day or FeTPPS 30 mg/kg/day i.p. Here is the method: EAE was induced as described previously (Nath et al., 2009). Animal procedures were approved by the institutional animal care and use committee of MUSC (AR #1644). Briefly, female C57BL/6J mice of 8-12 weeks of age weighing 18-22 g (The Jackson Laboratory, Bar Harbor, Me., USA) were randomly divided into four groups: 1) EAE animals treated with vehicle (EAE; n=8), 2) EAE with GSNO (1 mg/kg body weight per day; i.p.) treatment (EAE+GSNO; n=12), 3) EAE with FeTPPS (30 mg/kg body weight per day; i.p.) treatment (EAE+FeTPPS; n=8), 4) control with vehicle (Ctrl; n=8). The group size was determined by power analysis based on our previous data (Nadi et al., 2009). Then, the mice were immunized subcutaneously in the flank regions with MOG35-55 peptide (MOG; 200 ug; Peptide International) emulsified (1:1) in 100 ul complete Freund's adjuvant (CFA) CHI day 0 and day 7. […] Clinical signs of EAE were scored in animal facility in a blinded fashion to experimenter between 2 and 4 pm daily by examiners blinded to experimental treatments using the following scale: 0=no clinical signs of disease; 1=limp tail or waddling gait with tail tonicity; 2=waddling gait with limp tail (ataxia); 2.5=ataxia with partial limb paralysis; 3=full paralysis of one limb; 3.5=full paralysis of one limb with partial paralysis of second limb; 4=full paralysis of two limbs; 4.5=moribund stage; 5=death. […]

As to `Cl.O=S(=O)([O-])c1ccc(-c2c3nc(c(-c4ccc(S(=O)(=O)O)cc4)c4ccc([nH]4)c(-c4ccc(S(=O)(=O)O)cc4)c4nc(c(-c5ccc(S(=O)(=O)O)cc5)c5ccc2[nH]5)C=C4)C=C3)cc1.[Fe]` [FeTPPS, 5,10,15,20-Tetrakis(4-sulfonatophenyl)porphyrinato Iron (III), Cl, reference compound], the “EAE-induced nitrotyrosine levels in spinal cords” value in assay [1] was “significantly decreased”. Further, the “TBI-induced increase in Evan's blue extravasation” value in assay [2] is given as “reduced”. Also, the “extravasation of peripheral mononuclear cells into the CNS” value in assay [3] is “significantly decreased”.

`N[C@@H](CCC(=O)N[C@@H](CSN=O)C(=O)NCC(=O)O)C(=O)O` [GSNO, S-nitrosoglutathione]: the “EAE-induced nitrotyrosine levels in spinal cords” value in assay [1] is “significantly decreased”. Also, in assay [2], the “TBI-induced increase in Evan's blue extravasation” value is “reduced”. For the same molecule, the “extravasation of peripheral mononuclear cells into the CNS” value in assay [3] was “significantly decreased”.
